Here are results for 16 compounds from ChEMBL document CHEMBL1130301, “Constrained -alanine based GpIIb/IIIa antagonists” (Bioorg Med Chem Lett, 1997).

Where a SMILES comes first, the peptide text is derived from it.

Chain of Integrin alpha-IIb/beta-3 (P05106 27-788 limits assumed): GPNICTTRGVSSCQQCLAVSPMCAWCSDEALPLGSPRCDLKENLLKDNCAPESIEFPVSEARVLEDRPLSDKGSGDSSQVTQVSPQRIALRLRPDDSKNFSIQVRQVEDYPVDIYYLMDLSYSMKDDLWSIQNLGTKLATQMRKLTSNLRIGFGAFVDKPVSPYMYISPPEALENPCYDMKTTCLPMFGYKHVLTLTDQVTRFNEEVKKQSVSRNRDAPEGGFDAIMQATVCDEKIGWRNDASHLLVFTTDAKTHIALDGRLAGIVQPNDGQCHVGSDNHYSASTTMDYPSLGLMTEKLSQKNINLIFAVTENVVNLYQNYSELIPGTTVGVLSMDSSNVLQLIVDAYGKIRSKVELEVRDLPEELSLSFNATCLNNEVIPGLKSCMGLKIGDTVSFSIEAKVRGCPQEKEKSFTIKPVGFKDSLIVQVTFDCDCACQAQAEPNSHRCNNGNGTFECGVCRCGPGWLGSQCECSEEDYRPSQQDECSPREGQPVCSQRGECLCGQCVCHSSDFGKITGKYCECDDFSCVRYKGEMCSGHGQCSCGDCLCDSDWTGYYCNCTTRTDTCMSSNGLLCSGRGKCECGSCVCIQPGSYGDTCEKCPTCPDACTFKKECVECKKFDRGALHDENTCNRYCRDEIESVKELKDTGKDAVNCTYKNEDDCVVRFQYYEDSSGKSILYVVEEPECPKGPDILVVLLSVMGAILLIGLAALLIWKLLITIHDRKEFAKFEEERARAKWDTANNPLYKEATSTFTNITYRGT
Chain of Integrin alpha-IIb/beta-3 (P08514 32-887 limits assumed): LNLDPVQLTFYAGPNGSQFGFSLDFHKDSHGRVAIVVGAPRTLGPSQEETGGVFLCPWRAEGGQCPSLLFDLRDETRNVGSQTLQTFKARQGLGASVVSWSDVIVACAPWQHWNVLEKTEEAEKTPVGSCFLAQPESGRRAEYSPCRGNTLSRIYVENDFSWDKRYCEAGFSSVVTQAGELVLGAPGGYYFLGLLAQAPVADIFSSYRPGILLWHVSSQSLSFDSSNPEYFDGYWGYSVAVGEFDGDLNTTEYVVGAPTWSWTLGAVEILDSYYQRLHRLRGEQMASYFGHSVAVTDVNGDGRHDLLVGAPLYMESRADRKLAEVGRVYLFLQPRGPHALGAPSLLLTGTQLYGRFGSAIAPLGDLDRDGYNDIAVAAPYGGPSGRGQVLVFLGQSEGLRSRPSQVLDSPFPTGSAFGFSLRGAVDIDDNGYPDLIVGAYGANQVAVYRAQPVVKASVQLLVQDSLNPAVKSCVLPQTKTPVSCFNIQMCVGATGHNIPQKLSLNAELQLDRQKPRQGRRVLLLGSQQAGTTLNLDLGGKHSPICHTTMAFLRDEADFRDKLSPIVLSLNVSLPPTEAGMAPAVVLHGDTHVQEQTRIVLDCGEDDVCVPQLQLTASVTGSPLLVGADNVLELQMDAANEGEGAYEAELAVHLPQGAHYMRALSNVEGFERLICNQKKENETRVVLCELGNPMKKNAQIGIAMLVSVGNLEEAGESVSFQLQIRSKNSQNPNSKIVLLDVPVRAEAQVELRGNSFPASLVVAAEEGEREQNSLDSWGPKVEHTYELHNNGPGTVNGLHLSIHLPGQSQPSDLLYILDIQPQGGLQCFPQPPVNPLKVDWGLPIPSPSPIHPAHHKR
Chain of Integrin alpha-IIb/beta-3 (P08514 891-1039 limits assumed): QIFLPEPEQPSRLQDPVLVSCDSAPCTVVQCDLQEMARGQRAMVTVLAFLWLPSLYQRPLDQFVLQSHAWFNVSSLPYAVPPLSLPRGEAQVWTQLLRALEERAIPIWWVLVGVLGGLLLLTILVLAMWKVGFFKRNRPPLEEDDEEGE

This assay addresses Integrin alpha-IIb/beta-3 (Homo sapiens, UniProt P05106+P08514). The experiment in a line: Inhibition of fibrinogen binding to activated human platelets. The format is functional.
Turning to `CC(C)[C@H](NC(=O)[C@H](CC(=O)O)NC(=O)CCNC(=O)/C=C/c1ccc(NC(=N)N)cc1)C(=O)O`, the IC50 worked out at 240 nM.
In the case of `CC(C)[C@H](NC(=O)[C@H](CC(=O)O)NC(=O)C1CN(C(=O)/C=C/c2ccc(NC(=N)N)cc2)C1)C(=O)O` it was above 20000 nM.
In the case of `CC(C)[C@H](NC(=O)[C@H](CC(=O)O)NC(=O)[C@H]1CCCN(C(=O)/C=C/c2ccc(NC(=N)N)cc2)C1)C(=O)O` it was 120 nM.
Regarding `CC(C)[C@H](NC(=O)[C@H](CC(=O)O)NC(=O)CCCNC(=O)/C=C/c1ccc(NC(=N)N)cc1)C(=O)O`, the 50% inhibitory concentration (IC50) was 70000 nM.
The compound `CC(C)[C@H](NC(=O)[C@H](CC(=O)O)NC(=O)CNC(=O)/C=C/c1ccc(NC(=N)N)cc1)C(=O)O` registered an IC50 of 5000 nM. This IC50 lies about 14-fold lower than the previous one.
With `CC(C)[C@H](NC(=O)[C@H](CC(=O)O)NC(=O)CNC(=O)[C@@H](N)CCCN=C(N)N)C(=O)O` (H-RGDV-OH), the IC50 was 6000 nM.
In the case of `CC(C)[C@H](NC(=O)[C@H](CC(=O)O)NC(=O)CCN(C)C(=O)/C=C/c1ccc(NC(=N)N)cc1)C(=O)O` it was 200 nM; in that of `CC(C)[C@H](NC(=O)[C@H](CC(=O)O)NC(=O)C[C@H]1CCCN1C(=O)/C=C/c1ccc(NC(=N)N)cc1)C(=O)O`, 26000 nM; in that of `CCN(CCC(=O)N[C@@H](CC(=O)O)C(=O)N[C@H](C(=O)O)C(C)C)C(=O)/C=C/c1ccc(NC(=N)N)cc1`, 220 nM.
`CC(C)[C@H](NC(=O)[C@H](CC(=O)O)NC(=O)C[C@H]1CCCCN1C(=O)/C=C/c1ccc(NC(=N)N)cc1)C(=O)O` displayed a concentration for half-maximal inhibition (IC50) above 20000 nM.
In the case of `CC(C)[C@H](NC(=O)[C@H](CC(=O)O)NC(=O)C[C@@H]1CCCN1C(=O)/C=C/c1ccc(NC(=N)N)cc1)C(=O)O` it was 1500 nM; in that of `CC(C)[C@H](NC(=O)[C@H](CC(=O)O)NC(=O)[C@H]1CCN(C(=O)/C=C/c2ccc(NC(=N)N)cc2)C1)C(=O)O`, 3000 nM; in that of `CC(C)[C@H](NC(=O)[C@H](CC(=O)O)NC(=O)[C@@H]1CCCN(C(=O)/C=C/c2ccc(NC(=N)N)cc2)C1)C(=O)O`, 70 nM.
Compound `CC(C)[C@H](NC(=O)[C@H](CC(=O)O)NC(=O)[C@@H]1CCN(C(=O)/C=C/c2ccc(NC(=N)N)cc2)C1)C(=O)O` registered an IC50 of 3 nM.
As to `CC(C)[C@H](NC(=O)[C@H](CC(=O)O)NC(=O)C[C@@H]1CCCCN1C(=O)/C=C/c1ccc(NC(=N)N)cc1)C(=O)O`, the IC50 was 200 nM. This IC50 is about 67-fold higher than that of the compound before.
In the case of `CC(C)[C@H](NC(=O)[C@H](CC(=O)O)NC(=O)C[C@H]1CCN1C(=O)/C=C/c1ccc(NC(=N)N)cc1)C(=O)O` it was 110 nM.
